Experimental data: patent publication US9682980B2, “Positive allosteric modulators of mGluR2” (BRISTOL-MYERS SQUIBB COMPANY, priority 2012, dated 2017)

What follows are molecules tested against human mGluR2 (Homo sapiens (Human), UniProt Q14416) (assay: MGluR2 cAMP assay). Conditions: HEK293 cells clonally expressing human mGluR2, 1 μM forskolin, 1 μM LY-341495.
Format: cell-based
Experimental: Clonally expressed human mGluR2 in HEK293 background was glutamate starved overnight in media without glutamine (GIBCO MEM 12360), containing 10% FBS, 1% penicillin streptomycin.
On the day of the assay, media was removed, cells washed with PBS, cells harvested and pelleted by centrifugation. Cell pellets were resuspended in stimulation buffer without forskolin and counted. A solution of 1.25×10^6 cells/ml was prepared and dispensed to plates using a Combi liquid handler (Thermo). A standard curve was created using a top concentration of cAMP of 1 μM in the stimulation buffer, 1:3 dilutions over 14 points in the absence of cells. Plates were read by time-resolved fluorescence at […] and a ratio was calculated via in house software, (665 nM/618 nM)*10^4. In house software converted the fluorescence value ratios to units of cAMP concentration, which is then used to calculate % inhibition for each test compound.
Compounds were added to white, standard volume 384 non-binding surface plates (Corning 3574). Cells were resuspended in stimulation buffer consisting of Hanks Balanced Salt Solution (14175-095) pH 7.0, 20 mM HEPES, 2.0 mM CaCl2, 5.0 mM MgCl2, and 1 mM IBMX (Sigma 15879), 1 μM forskolin, and 1 μM LY-341495, for 30 minutes. Buffer without forskolin was used as a negative control. Solutions of D2 and cryptate detection reagents from the CISBIO dynamic cAMP kit (62AM4PEJ) were diluted 1:40 in lysis buffer. Lysis buffer consisted of 50 mM Phosphate Buffer pH 7.0, 800 mM Potassium Fluoride, 0.2% BSA, and 1.0% Triton. Assay reaction was terminated by addition of detection reagents in lysis buffer. One hour later, plates were read on a PE Viewlux. Data was extracted, and concentration response curves generated by fitting the data to a standard 4 parameter logistic equation from which EC50 values were determined See table 1: A: <10 nM; B: 10-100 nM; C: 100-1000 nM; D: 1000-10000 nM.

Sequence of human mGluR2 (Q14416 19-872): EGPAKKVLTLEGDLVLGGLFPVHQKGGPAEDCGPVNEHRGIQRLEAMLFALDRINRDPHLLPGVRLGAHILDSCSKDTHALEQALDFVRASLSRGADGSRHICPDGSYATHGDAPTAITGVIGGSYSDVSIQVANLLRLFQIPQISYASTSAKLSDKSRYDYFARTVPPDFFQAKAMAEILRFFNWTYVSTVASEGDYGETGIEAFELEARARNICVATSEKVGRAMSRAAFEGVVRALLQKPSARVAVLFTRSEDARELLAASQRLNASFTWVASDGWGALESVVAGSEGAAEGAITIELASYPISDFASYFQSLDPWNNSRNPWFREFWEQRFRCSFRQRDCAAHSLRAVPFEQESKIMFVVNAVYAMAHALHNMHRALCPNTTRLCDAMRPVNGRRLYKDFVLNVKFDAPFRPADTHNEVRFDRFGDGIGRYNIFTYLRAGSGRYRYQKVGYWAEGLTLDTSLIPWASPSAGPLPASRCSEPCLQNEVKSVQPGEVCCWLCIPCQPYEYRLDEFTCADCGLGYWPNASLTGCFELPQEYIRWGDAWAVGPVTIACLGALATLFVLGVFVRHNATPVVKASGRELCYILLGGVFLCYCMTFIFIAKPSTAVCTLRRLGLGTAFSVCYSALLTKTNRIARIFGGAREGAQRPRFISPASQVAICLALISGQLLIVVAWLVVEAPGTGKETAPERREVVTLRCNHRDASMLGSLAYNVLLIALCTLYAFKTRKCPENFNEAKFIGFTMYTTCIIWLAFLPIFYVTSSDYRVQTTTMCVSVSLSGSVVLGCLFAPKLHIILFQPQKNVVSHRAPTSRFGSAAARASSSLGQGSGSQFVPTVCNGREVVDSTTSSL

SMILES | EC50 [nM]
Clc1cccc(C2CCN(c3cnn4c(CC5CC5)nnc4c3Cl)CC2)c1Cl [Example 46, 8-Chloro-3-(cyclopropylmethyl)-7-(4-(2,3-dichlorophenyl)piperidin-1-yl)-[1,2,4]triazolo[4,3-b]pyridazine] | 154
Clc1cc(Cl)cc(C2CCN(c3cnn4c(CC5CC5)nnc4c3Cl)CC2)c1 [Example 47, 8-Chloro-3-(cyclopropylmethyl)-7-(4-(3,5-dichlorophenyl)piperidin-1-yl)-[1,2,4]triazolo[4,3-b]pyridazine] | 144
FC(F)(F)Cc1nnc2c(Cl)c(N3CCC(c4cc(Cl)cc(Cl)c4)CC3)cnn12 [Example 48, 8-Chloro-7-(4-(3,5-dichlorophenyl)piperidin-1-yl)-3-(2,2,2-trifluoroethyl)-[1,2,4]triazolo[4,3-b]pyridazine] | 263
CCN(CC1CC1c1ccc(F)cc1)c1cnn2c(CC3CC3)nnc2c1Cl (stereo not shown) [Example 49, 8-Chloro-3-(cyclopropylmethyl)-N-ethyl-N-((2-(4-fluorophenyl)cyclopropyl)methyl)-[1,2,4]triazolo[4,3-b]pyridazin-7-amine] | 425
Fc1ccc(F)c(C2CCN(c3cnn4c(CC5CC5)nnc4c3Cl)CC2)c1OC(F)F [Example 50, 8-Chloro-3-(cyclopropylmethyl)-7-(4-(2-(difluoromethoxy)-3,6-difluorophenyl)piperidin-1-yl)-[1,2,4]triazolo[4,3-b]pyridazine] | 2
Fc1ccc(F)c(C2CCN(c3cnn4c(CC(F)(F)F)nnc4c3Cl)CC2)c1OC(F)F [Example 51, 8-Chloro-7-(4-(2-(difluoromethoxy)-3,6-difluorophenyl)piperidin-1-yl)-3-(2,2,2-trifluoroethyl)-[1,2,4]triazolo[4,3-b]pyridazine] | 3
Fc1cc(OC(F)F)c(C2CCN(c3cnn4c(CC5CC5)nnc4c3Cl)CC2)cc1F [Example 52, 8-Chloro-3-(cyclopropylmethyl)-7-(4-(2-(difluoromethoxy)-4,5-difluorophenyl)piperidin-1-yl)-[1,2,4]triazolo[4,3-b]pyridazine] | 8
Fc1cc(OC(F)F)c(C2CCN(c3cnn4c(CC(F)(F)F)nnc4c3Cl)CC2)cc1F [Example 53, 8-Chloro-7-(4-(2-(difluoromethoxy)-4,5-difluorophenyl)piperidin-1-yl)-3-(2,2,2-trifluoroethyl)-[1,2,4]triazolo[4,3-b]pyridazine] | 6
Fc1cc(F)c(OC(F)F)c(C2CCN(c3cnn4c(CC5CC5)nnc4c3Cl)CC2)c1 [Example 54, 8-Chloro-3-(cyclopropylmethyl)-7-(4-(2-(difluoromethoxy)-3,5-difluorophenyl)piperidin-1-yl)-[1,2,4]triazolo[4,3-b]pyridazine] | 10
Fc1cc(F)c(OC(F)F)c(C2CCN(c3cnn4c(CC(F)(F)F)nnc4c3Cl)CC2)c1 [Example 55, 8-Chloro-7-(4-(2-(difluoromethoxy)-3,5-difluorophenyl)piperidin-1-yl)-3-(2,2,2-trifluoroethyl)-[1,2,4]triazolo[4,3-b]pyridazine] | 21
FC(F)(F)Cc1nnc2c(Cl)c(N3CCC(c4ccccc4)CC3)cnn12 [Example 56, 8-Chloro-7-(4-phenylpiperidin-1-yl)-3-(2,2,2-trifluoroethyl)-[1,2,4]triazolo[4,3-b]pyridazine] | 62
Clc1c(N2CCC(c3ccccc3)CC2)cnn2c(Cc3ccccc3)nnc12 [Example 57, 3-Benzyl-8-chloro-7-(4-phenylpiperidin-1-yl)-[1,2,4]triazolo[4,3-b]pyridazine] | 217
CC(C)Cc1nnc2c(Cl)c(N3CCC(c4ccccc4)CC3)cnn12 [Example 58, 8-Chloro-3-isobutyl-7-(4-phenylpiperidin-1-yl)-[1,2,4]triazolo[4,3-b]pyridazine] | 201

Continued, values first:

EC50 [nM] | SMILES
121 | Clc1c(N2CCC(c3ccccc3)CC2)cnn2c(CCC3CC3)nnc12 [Example 59, 8-Chloro-3-(2-cyclopropylethyl)-7-(4-phenylpiperidin-1-yl)-[1,2,4]triazolo[4,3-b]pyridazine]
94 | FC(F)(F)Cc1nnc2c(Cl)c(N3CCC(c4cccc(Cl)c4Cl)CC3)cnn12 [Example 60, 8-Chloro-7-(4-(2,3-dichlorophenyl)piperidin-1-yl)-3-(2,2,2-trifluoroethyl)-[1,2,4]triazolo[4,3-b]pyridazine]
225 | Clc1c(NC2CCC(c3ccccc3)CC2)cnn2c(CC3CC3)nnc12 (stereo not shown) [Example 61, 8-Chloro-3-(cyclopropylmethyl)-N-(4-phenylcyclohexyl)-[1,2,4]triazolo[4,3-b]pyridazin-7-amine]
47 | O=C1Oc2ccccc2C12CCN(c1cnn3c(CC4CC4)nnc3c1Cl)CC2 [Example 62, 1′-(8-Chloro-3-(cyclopropylmethyl)-[1,2,4]triazolo[4,3-b]pyridazin-7-yl)-2H-spiro[benzofuran-3,4′-piperidin]-2-one]
185 | O=C1Oc2ccccc2C12CCN(c1cnn3c(CC(F)(F)F)nnc3c1Cl)CC2 [Example 63, 1′-(8-Chloro-3-(2,2,2-trifluoroethyl)-[1,2,4]triazolo[4,3-b]pyridazin-7-yl)-2H-spiro[benzofuran-3,4′-piperidin]-2-one]
733 | FC(F)(F)Cc1nnc2c(Cl)c(NC3CCC(c4ccccc4)CC3)cnn12 (stereo not shown) [Example 64, 8-Chloro-N-(4-phenylcyclohexyl)-3-(2,2,2-trifluoroethyl)-[1,2,4]triazolo[4,3-b]pyridazin-7-amine]
36 | FC(F)(F)c1ccccc1C1CCN(c2cnn3c(CC4CC4)nnc3c2Cl)CC1 [Example 65, 8-Chloro-3-(cyclopropylmethyl)-7-(4-(2-(trifluoromethyl)phenyl)piperidin-1-yl)-[1,2,4]triazolo[4,3-b]pyridazine]
23 | FC(F)(F)Cc1nnc2c(Cl)c(N3CCC(c4ccccc4C(F)(F)F)CC3)cnn12 [Example 66, 8-Chloro-3-(2,2,2-trifluoroethyl)-7-(4-(2-(trifluoromethyl)phenyl)piperidin-1-yl)-[1,2,4]triazolo[4,3-b]pyridazine]
5 | Fc1ccccc1C1CCN(c2ncn3c(CC(F)(F)F)nnc3c2Cl)CC1 [Example 67, 8-Chloro-7-(4-(2-fluorophenyl)piperidin-1-yl)-3-(2,2,2-trifluoroethyl)-[1,2,4]triazolo[4,3-c]pyrimidine]
4 | Fc1ccccc1C1CCN(c2ncn3c(CC4CC4)nnc3c2Cl)CC1 [Example 68, 8-Chloro-3-(cyclopropylmethyl)-7-(4-(2-fluorophenyl)piperidin-1-yl)-[1,2,4]triazolo[4,3-c]pyrimidine]
438 | Fc1ccc(C2CCN(c3ncn4c(CC(F)(F)F)nnc4c3Cl)CC2)cc1 [Example 69, 8-Chloro-7-(4-(4-fluorophenyl)piperidin-1-yl)-3-(2,2,2-trifluoroethyl)-[1,2,4]triazolo[4,3-c]pyrimidine]
3 | COc1cccc(F)c1C1CCN(c2cnn3c(CC4CC4)nnc3c2C(F)(F)F)CC1 [Example 70, 3-(Cyclopropylmethyl)-7-(4-(2-fluoro-6-methoxyphenyl)piperidin-1-yl)-8-(trifluoromethyl)-[1,2,4]triazolo[4,3-b]pyridazine]
4 | COc1cccc(F)c1C1CCN(c2cnn3c(CC4CC4)nnc3c2C(F)(F)F)CC1 [Example 71, 3-(Cyclopropylmethyl)-7-(4-(2-fluoro-6-methoxyphenyl)piperidin-1-yl)-8-(trifluoromethyl)-[1,2,4]triazolo[4,3-b]pyridazine]
15 | N#Cc1ccccc1C1CCN(c2cnn3c(CC4CC4)nnc3c2Cl)CC1 [Example 72, 2-(1-(8-Chloro-3-(cyclopropylmethyl)-[1,2,4]triazolo[4,3-b]pyridazin-7-yl)piperidin-4-yl)benzonitrile]
18 | N#Cc1ccccc1C1CCN(c2cnn3c(CC(F)(F)F)nnc3c2Cl)CC1 [Example 73, 2-(1-(8-chloro-3-(2,2,2-trifluoroethyl)-[1,2,4]triazolo[4,3-b]pyridazin-7-yl)piperidin-4-yl)benzonitrile]
14 | Fc1ccc(C2CCN(c3cnn4c(CC5CC5)nnc4c3Cl)CC2)c(F)c1 [Example 74, 8-Chloro-3-(cyclopropylmethyl)-7-(4-(2,4-difluorophenyl)piperidin-1-yl)-[1,2,4]triazolo[4,3-b]pyridazine]
16 | Fc1ccc(C2CCN(c3cnn4c(CC(F)(F)F)nnc4c3Cl)CC2)c(F)c1 [Example 75, 8-Chloro-7-(4-(2,4-difluorophenyl)piperidin-1-yl)-3-(2,2,2-trifluoroethyl)-[1,2,4]triazolo[4,3-b]pyridazine]
34 | FC(F)(F)c1cccnc1C1CCN(c2cnn3c(CC4CC4)nnc3c2Cl)CC1 [Example 76, 8-Chloro-3-(cyclopropylmethyl)-7-(4-(3-(trifluoromethyl)pyridin-2-yl)piperidin-1-yl)-[1,2,4]triazolo[4,3-b]pyridazine]
